We go through one compound from patent publication US20260308158A1, “TARGETING RNAS ASSOCIATED WITH TAUOPATHIES WITH SMALL MOLECULES” (University of Florida Research Foundation, Incorporated, priority 2023, published 2026).

In one assay the test system is WT model RNA. As to the kind of experiment: Optical melting, WT RNA. It is filed as binding. Particulars: 2 at 1.5 μM. The method, then: Optical Melting Experiments. The thermal stabilities of WT, DDPAC, and DDPAC+I17T model RNAs were analyzed by optical melting in the presence or absence of compound 1 or 2 as previously described.^18 The RNAs (2 μM) were heated to 95° C. in 1×PBS buffer and slowly cooled to room temperature. The samples were then cooled to 15° C. in the presence of compound 1 (10 μM; 0.1% (v/v) DMSO), 2 (1.5 μM; 0.1% (v/v) DMSO) or vehicle (0.1% (v/v) DMSO) and then heated to 85° C. at a rate of 1° C. per min. Absorbance as a function of temperature was measured at 260 nm using a Beckman Coulter DU800 UV/vis spectrophotometer. Melting curves were fitted with MeltWin 3.5.^31

Assay [1] deals with MAPT exon 10 splicing in htau mice. The assay is described as follows: MAPT exon 10 splicing in brain of htau mice (RT-qPCR). It is filed as in vivo, human MAPT in htau mouse. Particulars: 100 mg/kg p.o. q.o.d., 20 days. On the procedure: (§1) RNA Isolation and Real-Time Quantitative PCR (RT-qPCR). HeLa cells were treated as described in the Luciferase Reporter assay to Study Exon 10 Alternative Splicing. LAN5 cells were seeded in 12-well plates at 0.2×10^6 cells per well, treated with compound or ASO, and incubated for 48 h. Compound stocks prepared in DMSO and ASO stocks prepared in water were diluted in growth medium and added to cells. Total RNA was extracted from cells and analyzed via RT-qPCR to determine levels of 3R and 4R tau mRNA. In brief, the cells were washed with 1×DPBS and then lysed in the well using 300 μL of Lysis Buffer provided in a Quick-RNA MiniPrep kit (Zymo Research), which was used to extract total RNA per the manufacturer's protocol including the on-column DNase I digestion. The concentration of total RNA was measured by NanoDrop 2000 (Thermo Fisher Scientific). Only samples with OD260/OD280>1.8 were carried forward for analysis. Reverse transcription (RT) was carried out on 200 ng of total RNA using a qScript cDNA synthesis kit (QuantaBio) in a total volume of 10 μL according to the manufacturer's protocol. An Applied Biosystems QS5 384-well PCR system was used to complete qPCR reactions with Power SYBR Green Master Mix (Life Technologies), 600 nM each primer (Table S3), 20 ng of cDNA (1 μL of the RT reaction), in a total volume of 33 μL. Technical triplicates (10 μL each) were aliquoted into 384-well qPCR plates (Applied biosystems, 4483285). Subsequent qPCR analysis was performed using an Applied Biosystems QS5 384-well PCR system (software v.1.3.0). 4R/3R ratio were analyzed using ΔΔCt method using Equation 2: […]
hTau Mice Studies. htau mice and WT mice (C57BL/6J) were purchased from Jackson Laboratories. htau mice were maintained in-house through breeding between htau+/− mice. Genotype was confirmed by PCR amplification as previously described.^18 Only homozygous mice were used in in vivo studies. Mice were randomly assigned to a treatment group, which were age- and gender-matched (n=X). […] During the treatment period, nesting activity was assessed, as describe in Nesting Activity below. […]
A general note: Quantitative PCR measures a nucleic acid by following its amplification.

The test system of assay [2] is MAPT exon 10 splicing in LAN5 cells. The assay is described as follows: 4R/3R endogenous MAPT mRNA by RT-qPCR in LAN5 neuroblastoma cells. Type of assay: cell-based. On the procedure:
as §1
where ΔCt 4R or ΔCt 3R is the difference between the Ct values for the 4R or 3R MAPT mRNA and a housekeeping gene (18S rRNA) in total RNA from cells.

Assay [3] relates to endogenous MAPT pre-mRNA in LAN5 cells. As to the kind of experiment: Chem-CLIP / C-Chem-CLIP in LAN5 cells. Type of assay: cell-based. Particulars: pre-incubation. The method, then: Measuring Cellular Occupancy by Chem-CLIP and C-Chem-CLIP. LAN5 cells were grown to ~80% confluency in 100 mm diameter dishes. HeLa cells were transfected as described in the Luciferase Reporter Assay to Study Exon 10 Alternative Splicing except they were re-plated in 100 mm diameter dishes and grown to ~80% confluency (~1 day). The cells were then treated with 1.5 μM of 3 or 4 for 12 h. For C-Chem-CLIP, dilutions of competing compounds 1 or 2 were pre-incubated with cells for 12 h prior to adding 3. After addition of 3, the cells were incubated for an additional 12 h. After the treatment period, whether for Chem-CLIP or C-Chem-CLIP studies, the cells were washed with 10 mL of 1×DPBS. Ice-cold 1×DPBS (10 mL) was then added to the plate followed by irradiation with 365 nm light in a UV Stratalinker 2400 (Stratagene). Cells were scraped with a cell scraper, transferred to a 15 mL conical vial, and collected by centrifugation. Total RNA was extracted using TRIzol LS Reagent (Invitrogen) per the manufacturer's protocol. […]
RT-qPCR was performed on RNA samples before and after pull-down as described in Real-Time Quantitative PCR to enable calculation of fold enrichment in the pulled down samples. Relative fold enrichment of tau pre-mRNA was measured using Equation 3: […]

Consider `COc1cc(N)ncc1CCCN(C)CCCn1cnc2c3ccccc3n(C)c2c1=O` [Compound 2, 3-(3-((3-(6-amino-4-methoxypyridin-3-yl)propyl)(methyl)amino)propyl)-5-methyl-3,5-dihydro-4H-pyrimido[5,4-b]indol-4-one], for which the “increase of Tm” value in the assay on WT model RNA was found to be 0.76±0.1 °C. Moreover, the “total human MAPT transcript levels” value in assay [1] (htau mice) is recorded as “without alteration of total human MAPT transcript levels”. Also, in assay [1] (htau mice brain), the “reduction of 4R/3R ratio” value is 38±5% and the “reduction of PSI10” value is on record as 12±2%. Moreover, the inhibition at 1.5 µM in assay [2] (LA-N-5, 2 at 1.5 μM, LAN5, 48 h, RT-qPCR, read-out: reduction of 4R/3R ratio of MAPT RNA) was determined as 56 ± 4%. The “PSI10 (PSI of MAPT exon 10) vs vehicle” value in assay [2] (LAN5 cells) is recorded as “downregulated”. Also, the “competition of cross-linking of 3” value in assay [3] was “competed by 1 or 2 in dose dependent fashion”.
